System: corneal damage in corneal disorder models
Assay: Test for therapeutic effect on corneal damage (corneal disorder model, exorbital lacrimal gland removed)
Type: in vivo, male SD rats
Conditions: for Effect on corneal damage (in words): male SD rat corneal disorder model; for Effect on corneal damage (in words) / Improvement ratio (%): 0.02% eye drops 6 times a day for 7 days; for Improvement ratio (%) / Mean value of total scores (fluorescein staining of upper, middle and lower parts of the cornea): male SD rat; for Improvement ratio (%): {(control)-(compound)}/{(control)-(normal eye)}x100, control = 0%; for Mean value of total scores (fluorescein staining of upper, middle and lower parts of the cornea): 0.02% in physiological saline instilled into both eyes 6 times a day for 7 days, scored 7 days after start, mean of 8 eyes, each part scored 0-3
Protocol: Test for Therapeutic Effect on Corneal Damage
Using male SD rats, in accordance with the method of Fujihara et al. (Invest. Ophthalmol. Vis. Sci. 42 (1): 96-100 (2001)), corneal disorder models were produced. After the production of the corneal disorder models, the improvement ratio of a corneal damage was evaluated according to the method of Murakami et al. (journal of the eye 21 (1): 87-90 (2004))
A male SD rat was systemically anesthetized by an administration of Nembutal. Subsequently the exorbital lacrimal gland was removed and a corneal damage was induced over a period of 2 months.
Then, 5-[4-[[3-methyl-4-oxo-3,4-dihydro-2-quinazolinyl]methoxy]phenylmethyl]thiazolidine-2,4-dione (Compound A) or N-[(4-methoxyphenoxy)carbonyl]-N-[[4-[2-(5-methyl-2-phenyl-4-oxazolyl)ethoxy]phenyl]methyl]glycine (Compound B) was administered as follows.
A physiological saline solution of Compound A (0.02%) was instilled into both eyes 6 times a day for 7 days (one group consisting of 4 animals, 8 eyes).
A physiological saline solution of Compound B (0.02%) was instilled into both eyes 6 times a day for 7 days (one group consisting of 4 animals, 8 eyes).
In a control group, physiological saline was instilled into both eyes 6 times a day for 7 days (one group consisting of 4 animals, 8 eyes).
Seven days after the start of instillation, the damaged parts of the cornea were stained with fluorescein. For each of the upper, middle and lower parts of the cornea, the degree of fluorescein staining was evaluated by scoring according to the criteria shown below and the mean value of the total scores for each of the above-mentioned parts was calculated.
Further, the mean value of the total scores for the normal eye was also calculated.
• 0: No punctate staining • 1: Scattered staining (punctate, separated staining) • 2: Moderate staining(a part of punctate staining being adjacent) • 3: Heavy staining (punctate, barely separated staining) (Results)
By taking the mean value of the total scores for the control group (physiological saline) as a reference (improvement ratio: 0%), the calculation was carried out according to the calculation formula shown below. Each of the improvement ratios for the Compound A administered group and the Compound B administered group are shown in Table 1 and Table 2. The mean value of the scores is a mean of those of 8 cases, respectively. Improvement ratio (%)={(control)−(the present compound)}/damage degree×100 Damage degree=(control)−(normal eye)

SMILES	Effect on corneal damage (in words)	Improvement ratio (%)	Mean value of total scores (fluorescein staining of upper, middle and lower parts of the cornea)
Cn1c(COc2ccc(CC3SC(=O)NC3=O)cc2)nc2ccccc2c1=O (stereo not drawn) [Compound A, 5-[4-[[3-methyl-4-oxo-3,4-dihydro-2-quinazolinyl]methoxy]phenylmethyl]thiazolidine-2,4-dione]	significantly improve a corneal damage	40.0%	4.8
COc1ccc(OC(=O)N(CC(=O)O)Cc2ccc(OCCc3nc(-c4ccccc4)oc3C)cc2)cc1 [Compound B, N-[(4-methoxyphenoxy)carbonyl]-N-[[4-[2-(5-methyl-2-phenyl-4-oxazolyl)ethoxy]phenyl]methyl]glycine]	significantly improve a corneal damage	42.3%	5.2

Source: patent US7348329B2, “Therapeutic agent for keratoconjunctival disorder” (Santen Pharmaceutical Co., Ltd., priority 2003, dated 2008)
